The results in this text go back to PubChem BioAssay AID256 (DTP/NCI, 2004).

The subject of this test is CD2F1 mice, L1210 leukemia ip, survival T/C. Briefly: NCI In Vivo Anticancer Drug Screen. Data for tumor model L1210 Leukemia (intraperitoneal) in CD2F1 (CDF1) mice. To be noted: higher = longer survival. In short, it runs like this:
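Ratio T/C, where T is the treated-group value and C the vehicle-dosed control value, from mice implanted with a transplantable tumor.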

[1] abbreviates: endpoint: mean survival time, dose: 100.0 mg/kg/injection, schedule: Q01DX001 (ip), vehicle: saline with Tween-80.
[2] abbreviates: endpoint: mean survival time, dose: 200.0 mg/kg/injection, schedule: Q01DX001 (ip), vehicle: saline with Tween-80.
Where [3] appears, read: endpoint: mean survival time, dose: 400.0 mg/kg/injection, schedule: Q01DX001 (ip), vehicle: saline with Tween-80.
Where [4] appears, read: endpoint: mean survival time, dose: 100.0 mg/kg/injection, schedule: Q04DX002 (ip), vehicle: saline with Tween-80.
Where [5] appears, read: endpoint: mean survival time, dose: 200.0 mg/kg/injection, schedule: Q04DX002 (ip), vehicle: saline with Tween-80.
Where [6] appears, read: endpoint: mean survival time, dose: 400.0 mg/kg/injection, schedule: Q04DX002 (ip), vehicle: saline with Tween-80.
The mark [7] stands for this setting: endpoint: mean survival time, dose: 100.0 mg/kg/injection, schedule: Q04DX003 (ip), vehicle: saline with Tween-80.
Where [8] appears, read: endpoint: mean survival time, dose: 200.0 mg/kg/injection, schedule: Q04DX003 (ip), vehicle: saline with Tween-80.
[9] abbreviates: endpoint: mean survival time, dose: 400.0 mg/kg/injection, schedule: Q04DX003 (ip), vehicle: saline with Tween-80.
[10] abbreviates: endpoint: mean survival time, dose: 100.0 mg/kg/injection, schedule: Q01DX001 (ip), vehicle: saline.
[11] abbreviates: endpoint: mean survival time, dose: 200.0 mg/kg/injection, schedule: Q01DX001 (ip), vehicle: saline.
Where [12] appears, read: endpoint: mean survival time, dose: 100.0 mg/kg/injection, schedule: Q01DX009 (ip), vehicle: saline with Tween-80.
[13] abbreviates: endpoint: mean survival time, dose: 200.0 mg/kg/injection, schedule: Q01DX009 (ip), vehicle: saline with Tween-80.
The mark [14] stands for this setting: endpoint: mean survival time, dose: 400.0 mg/kg/injection, schedule: Q01DX009 (ip), vehicle: saline with Tween-80.

Values joined by “and” are separate entries in the source; they are usually repeats but may differ in a detail not shown here. Equal values may be shown once. Inconclusive results and toxic doses are left out.

On to `Cc1ccc(C2=C(c3ccc(C)cc3)CS(=O)(=O)C2)cc1`, for which the T/C was 92 % of control under setting [1]; 93 % of control under setting [2]; 92 % of control under setting [3]; 92 % of control (endpoint: mean survival time, dose: 800.0 mg/kg/injection, schedule: Q01DX001 (ip), vehicle: saline with Tween-80).

Consider `[CH3][Tl]([CH3])[Br]`, for which the T/C reads like this: under setting [4], 100 % of control; under setting [5], 96 % of control; under setting [6], 96 % of control.

Consider `CCCCCCCCCCCCCCCC(=O)Nc1ccccc1CC`, for which the T/C under setting [4] is 91 % of control, the T/C under setting [5] is 95 % of control and the T/C under setting [6] is 103 % of control.

Take `CC12CCC(=O)C=C1CCC1C2CCC2(C)C(C(=O)Cn3c(=O)cc[nH]c3=O)CCC12` (stereo unspecified): the T/C was 91 % of control (endpoint: mean survival time, dose: 12.5 mg/kg/injection, schedule: Q04DX003 (ip), vehicle: Klucel (hydroxypropylcellulose) (HPC)); 97 % of control (endpoint: mean survival time, dose: 25.0 mg/kg/injection, schedule: Q04DX003 (ip), vehicle: Klucel (hydroxypropylcellulose) (HPC)); 91 % of control (endpoint: mean survival time, dose: 50.0 mg/kg/injection, schedule: Q04DX003 (ip), vehicle: Klucel (hydroxypropylcellulose) (HPC)); 95 % of control (endpoint: mean survival time, dose: 100.0 mg/kg/injection, schedule: Q04DX003 (ip), vehicle: Klucel (hydroxypropylcellulose) (HPC)); 103 % of control (endpoint: mean survival time, dose: 200.0 mg/kg/injection, schedule: Q04DX003 (ip), vehicle: Klucel (hydroxypropylcellulose) (HPC)).

For the compound `NC(=O)N/N=C/c1ccccc1N`, the T/C runs as follows: under setting [7], 97 % of control; under setting [8], 108 % of control; under setting [9], 98 % of control.

Regarding `NC(=O)c1[nH]cnc1NN=NCCF`, for the setting “endpoint: mean survival time, dose: 25.0 mg/kg/injection, schedule: Q01DX001 (ip), vehicle: Klucel (hydroxypropylcellulose) (HPC)”, the T/C was 320 % of control.

For `Clc1ccc(CSC2=NCCN2)cc1`, the T/C is, setting by setting: (endpoint: mean survival time, dose: 12.5 mg/kg/injection, schedule: Q01DX009 (ip), vehicle: saline) 87 % of control; (endpoint: mean survival time, dose: 25.0 mg/kg/injection, schedule: Q01DX009 (ip), vehicle: saline) 87 % of control; (endpoint: mean survival time, dose: 50.0 mg/kg/injection, schedule: Q01DX009 (ip), vehicle: saline) 90 % of control.

As for `C1CCC2C3CCC(O3)C2C1` (stereo unspecified), the T/C runs as follows: (endpoint: mean survival time, dose: 100.0 mg/kg/injection, schedule: Q04DX003 (ip), vehicle: saline sonified) 96 % of control; (endpoint: mean survival time, dose: 200.0 mg/kg/injection, schedule: Q04DX003 (ip), vehicle: saline sonified) 96 % of control; (endpoint: mean survival time, dose: 400.0 mg/kg/injection, schedule: Q04DX003 (ip), vehicle: saline sonified) 92 % of control.

Regarding `Cc1ccc(SSc2ccc(C)cc2)cc1`, the T/C is, setting by setting: under setting [10], 100 % of control; under setting [11], 100 % of control; (endpoint: mean survival time, dose: 400.0 mg/kg/injection, schedule: Q01DX001 (ip), vehicle: saline) 91 % of control.

Regarding `Fc1c(F)c(F)c(Nc2c(F)c(F)c3c(F)c(F)c(F)c(F)c3c2F)c(F)c1F`, the T/C is, setting by setting: under setting [1], 98 % of control; under setting [2], 96 % of control; under setting [3], 98 % of control.

For `CCCC(O)C(N)CC` (stereo unspecified), the T/C by setting is: under setting [10], 98 % of control; under setting [11], 90 % of control.

As to `COc1ccc(/C=C/c2ccc([N+](=O)[O-])cc2)cc1`, the T/C by setting is: under setting [7], 102 % of control; under setting [8], 100 % of control; under setting [9], 100 % of control.

With `NNC(=O)c1ccc(Cl)cc1Nc1cccc(Cl)c1`, the T/C reads like this: under setting [7], 112 % of control; under setting [8], 89 % of control.

As for `CC(O)CCC(=O)c1ccoc1` (stereo unspecified), the T/C is 109 % of control (endpoint: median survival time, dose: 0.62 mg/kg/injection, schedule: Q03HX015 (ip), vehicle: saline); 117 % of control (endpoint: median survival time, dose: 1.25 mg/kg/injection, schedule: Q03HX015 (ip), vehicle: saline); 106 % of control (endpoint: median survival time, dose: 2.5 mg/kg/injection, schedule: Q03HX015 (ip), vehicle: saline); 112 % of control (endpoint: median survival time, dose: 3.75 mg/kg/injection, schedule: Q03HX015 (ip), vehicle: saline + alcohol); 102 % of control (endpoint: median survival time, dose: 5.0 mg/kg/injection, schedule: Q03HX015 (ip), vehicle: saline); 105 % of control (endpoint: median survival time, dose: 7.5 mg/kg/injection, schedule: Q03HX015 (ip), vehicle: saline + alcohol). The T/C (endpoint: median survival time, dose: 10.0 mg/kg/injection, schedule: Q03HX015 (ip), vehicle: saline) is 109 % of control.

As to `CN(C)N=C1CCCCC1`, the T/C is 96 % of control (endpoint: mean survival time, dose: 75.0 mg/kg/injection, schedule: Q01DX001 (ip), vehicle: saline) and 98 % of control (endpoint: mean survival time, dose: 150.0 mg/kg/injection, schedule: Q01DX001 (ip), vehicle: saline).

For the compound `COC(=O)Nc1nc2ccccc2[nH]1`, the T/C runs as follows: under setting [1], 98 % of control; under setting [2], 91 % of control; under setting [3], 96 % of control; (endpoint: mean survival time, dose: 500.0 mg/kg/injection, schedule: Q04DX003 (ip), vehicle: saline with Tween-80) 119 % of control; (endpoint: mean survival time, dose: 600.0 mg/kg/injection, schedule: Q04DX003 (ip), vehicle: saline with Tween-80) 122 % of control; (endpoint: mean survival time, dose: 800.0 mg/kg/injection, schedule: Q04DX003 (ip), vehicle: saline with Tween-80) 111 % of control.

`CC12NC(=O)NC1(C)NC(=O)N2` (stereo unspecified): the T/C under setting [12] is 95 % of control, the T/C under setting [13] was 101 % of control and the T/C under setting [14] was 86 % of control.

Regarding `CN(C)/N=N\c1ncn(C2OC(CO)C(O)C2O)c1C(N)=O` (stereo unspecified), the T/C (endpoint: mean survival time, dose: 100.0 mg/kg/injection, schedule: Q01DX005 (ip), vehicle: saline) is 123 % of control.

On to `COc1ccc(OC)c(C2N(Cc3ccc(N(C)C)cc3)CCCN2Cc2ccc(N(C)C)cc2)c1`, for which the T/C under setting [7] is 90 % of control and the T/C under setting [8] was 87 % of control.

In the case of `CC1CCC2(OC1)OC1CC3C4CCC5(C)CC(=O)CCC5(C)C4CCC3(C)C1C2C` (stereo unspecified), the T/C is 90 % of control under setting [4] and 86 % of control under setting [5].

Regarding `NC(=S)N/N=C/c1ccccc1O`, the T/C runs as follows: under setting [12], 102 % of control; under setting [13], 91 % of control; under setting [14], 88 % of control.

For the compound `OC1C(COCc2ccccc2)OC(n2cccc2)C1O` (stereo unspecified), the T/C is, setting by setting: (endpoint: median survival time, dose: 8.75 mg/kg/injection, schedule: Q01DX005 (ip), vehicle: distilled water + Tween-80) 98 % of control; (endpoint: median survival time, dose: 17.5 mg/kg/injection, schedule: Q01DX005 (ip), vehicle: distilled water + Tween-80) 101 % of control; (endpoint: median survival time, dose: 35.0 mg/kg/injection, schedule: Q01DX005 (ip), vehicle: distilled water + Tween-80) 104 % of control; (endpoint: median survival time, dose: 70.0 mg/kg/injection, schedule: Q01DX005 (ip), vehicle: distilled water + Tween-80) 112 % of control; (endpoint: median survival time, dose: 140.0 mg/kg/injection, schedule: Q01DX005 (ip), vehicle: distilled water + Tween-80) 98 % of control.

On to `O=C1C=CC(=NS(=O)(=O)c2ccccc2)C=C1`, for which the T/C is 93 % of control (endpoint: mean survival time, dose: 25.0 mg/kg/injection, schedule: Q01DX001 (ip), vehicle: other); 95 % of control (endpoint: mean survival time, dose: 50.0 mg/kg/injection, schedule: Q01DX001 (ip), vehicle: other); 104 % of control (endpoint: mean survival time, dose: 100.0 mg/kg/injection, schedule: Q01DX001 (ip), vehicle: other).

With `CSCSCC(N)CO` (stereo unspecified), the T/C is 102 % of control (endpoint: mean survival time, dose: 25.0 mg/kg/injection, schedule: Q01DX009 (ip), vehicle: Klucel (hydroxypropylcellulose) (HPC)); 94 % of control (endpoint: mean survival time, dose: 50.0 mg/kg/injection, schedule: Q01DX009 (ip), vehicle: Klucel (hydroxypropylcellulose) (HPC)); 93 % of control (endpoint: mean survival time, dose: 100.0 mg/kg/injection, schedule: Q01DX009 (ip), vehicle: Klucel (hydroxypropylcellulose) (HPC)); 96 % of control (endpoint: mean survival time, dose: 200.0 mg/kg/injection, schedule: Q01DX009 (ip), vehicle: Klucel (hydroxypropylcellulose) (HPC)); 96 % of control (endpoint: mean survival time, dose: 400.0 mg/kg/injection, schedule: Q01DX009 (ip), vehicle: Klucel (hydroxypropylcellulose) (HPC)).

Consider `Clc1cccc(Cl)c1C(Nc1nncs1)Nc1nncs1`, for which the T/C is 113 % of control (endpoint: median survival time, dose: 25.0 mg/kg/injection, schedule: Q01DX005 (ip), vehicle: saline with Tween-80); 151 % of control (endpoint: median survival time, dose: 144.0 mg/kg/injection, schedule: Q01DX005 (ip), vehicle: saline with Tween-80); 171 % of control (endpoint: median survival time, dose: 240.0 mg/kg/injection, schedule: Q01DX005 (ip), vehicle: saline with Tween-80); 192 % of control and 223 % of control (endpoint: median survival time, dose: 400.0 mg/kg/injection, schedule: Q01DX005 (ip), vehicle: saline with Tween-80).
